Assay results: PubChem BioAssay AID1745844 (Carcinogenic Potency Database (CPDB), 2022)
Active and inactive are the calls of the source. No rule for the calls is given here.

Test system: rodent lifetime carcinogenesis bioassay, tumor incidence TD50
Assay: chronic cancer bioassays in animals – CPDB, compiled studies (AID 1745844)
[1] = mouse, strain B6C3F1, females, in feed, site: any site (literature study), lesion: several types, types named in the paper, dosed 78 weeks, study length 95 weeks
[2] = mouse, strain B6C3F1, females, in feed, site: liver, lesion: hepatocellular adenoma + hepatocellular carcinoma + neoplastic nodule, dosed 78 weeks, study length 95 weeks
[3] = mouse, strain B6C3F1, females, in feed, site: liver, lesion: hepatocellular adenoma + hepatocellular carcinoma, dosed 78 weeks, study length 95 weeks
[4] = mouse, strain B6C3F1, females, in feed, site: liver, lesion: hepatocellular carcinoma, dosed 78 weeks, study length 95 weeks

Nc1ccc(Cl)cc1N
TD50 [1]: 4090 mg/kg/day
TD50 [2]: 2240 mg/kg/day
TD50 [3]: 2240 mg/kg/day
TD50 [4]: 5060 mg/kg/day
TD50 (mouse, strain B6C3F1, males, in feed, site: any site (literature study), lesion: several types, types named in the paper, dosed 78 weeks, study length 95 weeks): 905 mg/kg/day
TD50 (mouse, strain B6C3F1, males, in feed, site: liver, lesion: hepatocellular adenoma + hepatocellular carcinoma + neoplastic nodule, dosed 78 weeks, study length 95 weeks): 957 mg/kg/day
TD50 (mouse, strain B6C3F1, males, in feed, site: liver, lesion: hepatocellular adenoma + hepatocellular carcinoma, dosed 78 weeks, study length 95 weeks): 957 mg/kg/day
TD50 (mouse, strain B6C3F1, males, in feed, site: liver, lesion: hepatocellular carcinoma, dosed 78 weeks, study length 95 weeks): 1370 mg/kg/day
TD50 (mouse, strain B6C3F1, males, in feed, site: lung, lesion: alveolar/bronchiolar adenoma + alveolar/bronchiolar carcinoma, dosed 78 weeks, study length 95 weeks): 21300 mg/kg/day
TD50 (rat, strain Fischer 344, females, in feed, site: any site (literature study), lesion: several types, types named in the paper, dosed 78 weeks, study length 105 weeks): 351 mg/kg/day
TD50 (rat, strain Fischer 344, females, in feed, site: liver, lesion: hepatocellular adenoma + hepatocellular carcinoma + neoplastic nodule, dosed 78 weeks, study length 105 weeks): 6500 mg/kg/day
TD50 (rat, strain Fischer 344, females, in feed, site: stomach + urinary bladder, lesion: squamous-cell papilloma + papillomatosis + papillary carcinoma + papilloma, NOS + transitional-cell carcinoma + transitional-cell, dosed 78 weeks, study length 105 weeks): 212 mg/kg/day
TD50 (rat, strain Fischer 344, females, in feed, site: stomach, lesion: squamous-cell papilloma, dosed 78 weeks, study length 105 weeks): 5270 mg/kg/day
TD50 (rat, strain Fischer 344, females, in feed, site: thyroid gland, lesion: follicular-cell adenoma + follicular-cell carcinoma, dosed 78 weeks, study length 105 weeks): 2160 mg/kg/day
TD50 (rat, strain Fischer 344, females, in feed, site: urinary bladder, lesion: papillary carcinoma + transitional-cell carcinoma, dosed 78 weeks, study length 105 weeks): 429 mg/kg/day
TD50 (rat, strain Fischer 344, females, in feed, site: urinary bladder, lesion: papillomatosis + papillary carcinoma + papilloma, NOS + transitional-cell carcinoma + transitional-cell papilloma, dosed 78 weeks, study length 105 weeks): 212 mg/kg/day
TD50 (rat, strain Fischer 344, males, in feed, site: any site (literature study), lesion: several types, types named in the paper, dosed 78 weeks, study length 105 weeks): 362 mg/kg/day
TD50 (rat, strain Fischer 344, males, in feed, site: liver, lesion: hepatocellular adenoma + hepatocellular carcinoma + neoplastic nodule, dosed 78 weeks, study length 105 weeks): 1240 mg/kg/day
TD50 (rat, strain Fischer 344, males, in feed, site: stomach + urinary bladder, lesion: squamous-cell carcinoma + squamous-cell papilloma + papilloma, NOS + transitional-cell carcinoma + transitional-cell papilloma, dosed 78 weeks, study length 105 weeks): 197 mg/kg/day
TD50 (rat, strain Fischer 344, males, in feed, site: stomach, lesion: squamous-cell carcinoma + squamous-cell papilloma, dosed 78 weeks, study length 105 weeks): 2500 mg/kg/day
TD50 (rat, strain Fischer 344, males, in feed, site: thyroid gland, lesion: follicular-cell adenoma + follicular-cell carcinoma, dosed 78 weeks, study length 105 weeks): 3380 mg/kg/day
TD50 (rat, strain Fischer 344, males, in feed, site: urinary bladder, lesion: papilloma, NOS + transitional-cell carcinoma + transitional-cell papilloma, dosed 78 weeks, study length 105 weeks): 216 mg/kg/day
TD50 (rat, strain Fischer 344, males, in feed, site: urinary bladder, lesion: squamous-cell carcinoma, dosed 78 weeks, study length 105 weeks): 3780 mg/kg/day
TD50 (rat, strain Fischer 344, males, in feed, site: urinary bladder, lesion: transitional-cell carcinoma, dosed 78 weeks, study length 105 weeks): 363 mg/kg/day

CC(C)CN(N=O)C(N)=O
TD50 (rat, strain Donryu, females, in drinking water, site: any site (literature study), lesion: several types, types named in the paper, dosed 76 weeks, study length 76 weeks): 4.7 mg/kg/day
TD50 (rat, strain Donryu, females, in drinking water, site: digestive tract, lesion: several types, types named in the paper, dosed 76 weeks, study length 76 weeks): 4.73 mg/kg/day
TD50 (rat, strain Donryu, females, in drinking water, site: duodenum, lesion: several types, types named in the paper, dosed 76 weeks, study length 76 weeks): 7.22 mg/kg/day
TD50 (rat, strain Donryu, females, in drinking water, site: liver, lesion: several types, types named in the paper, dosed 76 weeks, study length 76 weeks): 1220 mg/kg/day
TD50 (rat, strain Donryu, females, in drinking water, site: stomach, glandular, lesion: several types, types named in the paper, dosed 76 weeks, study length 76 weeks): 23.1 mg/kg/day

CNC[C@H](O)c1ccc(O)c(O)c1
TD50 (mouse, strain B6C3F1, females, inhaled, site: liver, lesion: hepatocellular adenoma + hepatocellular carcinoma + neoplastic nodule, dosed 104 weeks, study length 107 weeks): 9.74 mg/kg/day
TD50 (mouse, strain B6C3F1, females, inhaled, site: uterus, lesion: endometrial stromal polyp + endometrial stromal sarcoma, dosed 104 weeks, study length 107 weeks): 6.86 mg/kg/day
TD50 (mouse, strain B6C3F1, females, inhaled, site: uterus, lesion: endometrial stromal polyp, dosed 104 weeks, study length 107 weeks): 8.52 mg/kg/day
TD50 (rat, strain Fischer 344, males, inhaled, site: any site (literature study), lesion: several types, types named in the paper, dosed 103 weeks, study length 105 weeks): 4.7 mg/kg/day

Cc1ccccc1OCC(O)CNCCn1cc(C)c(=O)[nH]c1=O (centres undefined)
TD50 (mouse, strain Charles River CD1, females, in feed, site: any site (literature study), lesion: several types, types named in the paper, dosed 78 weeks, study length 78 weeks): 52.3 mg/kg/day
TD50 (mouse, strain Charles River CD1, females, in feed, site: liver, lesion: hepatocellular carcinoma, dosed 78 weeks, study length 78 weeks): 1670 mg/kg/day
TD50 (mouse, strain Charles River CD1, females, in feed, site: lung, lesion: adenocarcinoma, dosed 78 weeks, study length 78 weeks): 1670 mg/kg/day
TD50 (mouse, strain Charles River CD1, females, in feed, site: lung, lesion: adenoma, dosed 78 weeks, study length 78 weeks): 449 mg/kg/day
TD50 (mouse, strain Charles River CD1, males, in feed, site: liver, lesion: hepatocellular carcinoma, dosed 78 weeks, study length 78 weeks): 935 mg/kg/day

C#C[C@]1(OC(C)=O)CC[C@H]2[C@@H]3CCC4=CC(=O)CC[C@@H]4[C@H]3CC[C@@]21C (tested in a mixture with another compound)
carcinogen call (monkey, strain Rhesus [Macaca mulatta], females, in feed, site: pancreatic duct, lesion: adenoma, dosed 391 weeks, study length 521 weeks): negative (inactive)
TD50 (monkey, strain Rhesus [Macaca mulatta], females, in feed, site: skin, lesion: papilloma, dosed 391 weeks, study length 521 weeks): 10.1 mg/kg/day (inactive)
TD50 (monkey, strain Rhesus [Macaca mulatta], females, in feed, site: uterus, lesion: leiomyoma, dosed 391 weeks, study length 521 weeks): 6.42 mg/kg/day (inactive)
carcinogen call (mouse, strain C57L/He x 129/Rr x C3HeB/De x SWR/Ly, females, by gavage, site: any site (literature study), lesion: several types, types named in the paper, dosed 69 weeks, study length 69 weeks): negative (inactive)
carcinogen call (mouse, strain C57L/He x 129/Rr x C3HeB/De x SWR/Ly, females, by gavage, site: any site (literature study), lesion: several types, types named in the paper, dosed 69 weeks, study length 82 weeks): negative (inactive)
carcinogen call (mouse, strain C57L/He x 129/Rr x C3HeB/De x SWR/Ly, females, by gavage, site: lung, lesion: one or several types, types not named, dosed 69 weeks, study length 69 weeks): negative (inactive)
TD50 (mouse, strain C57L, females, by gavage, site: pituitary gland, lesion: one or several types, types not named, dosed 89 weeks, study length 89 weeks): 1.34 mg/kg/day
TD50 (rat, strain Sprague-Dawley albino, both sexes, in feed, site: any site (literature study), lesion: several types, types named in the paper, dosed 104 weeks, study length 104 weeks): 14.2 mg/kg/day
TD50 (rat, strain Sprague-Dawley albino, both sexes, in feed, site: liver, lesion: hepatocellular adenoma, dosed 104 weeks, study length 104 weeks): 7.59 mg/kg/day
TD50 (rat, strain Sprague-Dawley albino, both sexes, in feed, site: liver, lesion: hyperplastic nodule, dosed 104 weeks, study length 104 weeks): 1.94 mg/kg/day
TD50 (rat, strain Sprague-Dawley albino, both sexes, in feed, site: mammary gland, lesion: adenocarcinoma, dosed 104 weeks, study length 104 weeks): 76.8 mg/kg/day
TD50 (rat, strain Sprague-Dawley albino, both sexes, in feed, site: mammary gland, lesion: adenoma, dosed 104 weeks, study length 104 weeks): 14.8 mg/kg/day
TD50 (rat, strain Sprague-Dawley albino, both sexes, in feed, site: mammary gland, lesion: fibroepithelial tumor, dosed 104 weeks, study length 104 weeks): 21 mg/kg/day
TD50 (rat, strain Sprague-Dawley albino, both sexes, in feed, site: mammary gland, lesion: several types, types named in the paper, dosed 104 weeks, study length 104 weeks): 6.66 mg/kg/day
TD50 (rat, strain Sprague-Dawley albino, both sexes, in feed, site: pituitary gland, lesion: chromophobe adenoma, dosed 104 weeks, study length 104 weeks): 5.31 mg/kg/day
TD50 (rat, strain Sprague-Dawley albino, both sexes, in feed, site: uterus, lesion: adenomatous endometrial polyp, dosed 104 weeks, study length 104 weeks): 27.4 mg/kg/day

C=Cc1cccc(C)c1
carcinogen call (mouse, strain B6C3F1, females, inhaled, site: any site (literature study), lesion: several types, types named in the paper, dosed 103 weeks, study length 104 weeks): negative (inactive)
TD50 (mouse, strain B6C3F1, females, inhaled, site: lung, lesion: alveolar/bronchiolar adenoma + alveolar/bronchiolar carcinoma, dosed 103 weeks, study length 104 weeks): 750 mg/kg/day
carcinogen call (mouse, strain B6C3F1, males, inhaled, site: any site (literature study), lesion: several types, types named in the paper, dosed 103 weeks, study length 104 weeks): negative (inactive)
TD50 (rat, strain Fischer 344, females, inhaled, site: any site (literature study), lesion: several types, types named in the paper, dosed 103 weeks, study length 104 weeks): 312 mg/kg/day (inactive)
carcinogen call (rat, strain Fischer 344, males, inhaled, site: any site (literature study), lesion: several types, types named in the paper, dosed 103 weeks, study length 104 weeks): negative (inactive)

Nc1ccc(Cl)c(N)c1
TD50 [1]: 15400 mg/kg/day
TD50 [2]: 1230 mg/kg/day
TD50 [3]: 1230 mg/kg/day
TD50 [4]: 1780 mg/kg/day
TD50 (mouse, strain B6C3F1, males, in feed, site: any site (literature study), lesion: several types, types named in the paper, dosed 78 weeks, study length 94 weeks): 7320 mg/kg/day (inactive)
TD50 (mouse, strain B6C3F1, males, in feed, site: liver, lesion: hepatocellular adenoma + hepatocellular carcinoma + neoplastic nodule, dosed 78 weeks, study length 94 weeks): 7050 mg/kg/day
TD50 (rat, strain Fischer 344, females, in feed, site: any site (literature study), lesion: several types, types named in the paper, dosed 78 weeks, study length 104 weeks): 479 mg/kg/day
TD50 (rat, strain Fischer 344, females, in feed, site: liver, lesion: hepatocellular adenoma + hepatocellular carcinoma + neoplastic nodule, dosed 78 weeks, study length 104 weeks): 2680 mg/kg/day
TD50 (rat, strain Fischer 344, females, in feed, site: uterus, lesion: endometrial stromal polyp, dosed 78 weeks, study length 104 weeks): 175 mg/kg/day (inactive)
TD50 (rat, strain Fischer 344, males, in feed, site: adrenal gland, lesion: pheochromocytoma, dosed 78 weeks, study length 104 weeks): 315 mg/kg/day
TD50 (rat, strain Fischer 344, males, in feed, site: any site (literature study), lesion: several types, types named in the paper, dosed 78 weeks, study length 104 weeks): 422 mg/kg/day
TD50 (rat, strain Fischer 344, males, in feed, site: liver, lesion: hepatocellular adenoma + hepatocellular carcinoma + neoplastic nodule, dosed 78 weeks, study length 104 weeks): 1570 mg/kg/day

O=CCBr
carcinogen call (mouse, strain B6C3F1, females, in drinking water, site: any site (literature study), lesion: several types, types named in the paper, dosed 80 weeks, study length 80 weeks): negative (inactive)
TD50 (mouse, strain B6C3F1, females, in drinking water, site: forestomach, lesion: squamous-cell papilloma, dosed 80 weeks, study length 80 weeks): 2520 mg/kg/day (inactive)
TD50 (mouse, strain B6C3F1, females, in drinking water, site: liver, lesion: hemangioma, dosed 80 weeks, study length 80 weeks): 1020 mg/kg/day (inactive)
carcinogen call (mouse, strain B6C3F1, females, in drinking water, site: lung, lesion: one or several types, types not named, dosed 80 weeks, study length 80 weeks): negative (inactive)
carcinogen call (mouse, strain B6C3F1, males, in drinking water, site: any site (literature study), lesion: several types, types named in the paper, dosed 78 weeks, study length 78 weeks): negative (inactive)
TD50 (mouse, strain B6C3F1, males, in drinking water, site: forestomach, lesion: squamous-cell papilloma, dosed 78 weeks, study length 78 weeks): 1890 mg/kg/day (inactive)
carcinogen call (mouse, strain B6C3F1, males, in drinking water, site: liver, lesion: one or several types, types not named, dosed 78 weeks, study length 78 weeks): negative (inactive)
carcinogen call (mouse, strain B6C3F1, males, in drinking water, site: lung, lesion: papillary tumor, dosed 78 weeks, study length 78 weeks): negative (inactive)
